Reference: US9487470B2, “4-((substituted phenyl) difluoromethyl) phenoxy carboxylic acid derivative, and preparation method and uses thereof” (Zhejiang Hisun Pharmaceutical Co., Ltd., priority 2012, dated 2016)

How the values were obtained:
[1] = Solubility in water (remark on the test drugs); assay type: physicochemical; details: formulated with 20% solutol
[2] = test system: hyperlipoidemia model of Goldenhamsters (blood plasma TC, HDL-C, LDL-C); experiment: Pharmacological test group 2: effects on blood lipid levels of Goldenhamsters in hyperlipoidemia model; assay type: in vivo; details: for blood lipid-regulating effects (conclusion from table 3) / effect on HDL-C, in comparison with the results before administration (in words) / effect on LDL-C, in comparison with the results before administration (in words) / therapeutic effect compared with fenofibrate (conclusion from table 3) / effect on TC, in comparison with the results before administration (in words): 40 mg/kg; for HDL-C, after administration / LDL-C, after administration / TC, after administration: 40 mg/kg intragastric, 1 week, high-lipid feed continued, asterisks = P vs before administration; for HDL-C, after administration / LDL-C, after administration / TC, after administration / HDL-C, before administration / LDL-C, before administration / TC, before administration: blood plasma, x±s; for effect on HDL-C, in comparison with the results before administration (in words) / effect on LDL-C, in comparison with the results before administration (in words) / effect on TC, in comparison with the results before administration (in words): t test after vs before administration; for HDL-C, before administration / LDL-C, before administration / TC, before administration: baseline of the group before administration, high-lipid feed 2 weeks, 6 animals; for therapeutic effect compared with fenofibrate (conclusion from table 3): fenofibrate 40 mg/kg
Text: Animals: 120 male Goldenhamsters, aged 8 weeks, body weight 80-100 g, provided by Vital River Laboratories, Beijing.
Kits: The kits for total cholesterol (TC) and high density lipoprotein cholesterol (HDL-C) were provided by SYSMEX, and the kits for low density lipoprotein cholesterol (LDL-C) were provided by Shanghai Kehua Bio-engineering Co., Ltd.
Apparatus: SYSMEX Automatic Biochemistry Analyzer, Bechman centrifuge, Setoris balance.
The animals were acclimatized and fed for 1 week, ad lib, light cycle was 10 h/14 h, and then feeds with high lipid content were fed to the animals (formulation: 0.3% cholesterol, 20% palm oil, and 79.7% basic feeds). The animals were fed for 2 weeks, and were fasted at 4:00 pm on the 14th day (fasted for 16 h). On the 15th day, the animals were anaesthetized with ethyl ether, weighted, and then 0.5 ml blood was collected from vena orbitalis posterior. The blood was anticoagulated with heparin, and was centrifugated at 5000 rpm for 10 min. The blood plasma was taken, and the levels of TC, HDL-C, and LDL-C in blood plasma were determined using automatic biochemistry analyzer.
During the administration, feeds with high lipid content were continuously fed to the animals. The animals were fed for 1 week, and were fasted at 4:00 pm on the 7th day. On the 8th day, the animals were anaesthetized with ethyl ether, weighted, and then 0.5 ml blood was collected from vena orbitalis posterior. The blood was anticoagulated with heparin, and was centrifugated at 5000 rpm for 10 min. The blood plasma was taken, and the levels of TC, HDL-C, and LDL-C in blood plasma were determined using automatic biochemistry analyzer.
The results were represented by x±s, and t test was employed for comparing the results obtained before and after administration.

[3] = test system: hyperlipoidemia model of Goldenhamsters (blood plasma TC, TG, HDL-C, LDL-C); experiment: Pharmacological test group 1: effects on blood lipid levels of Goldenhamsters in a hyperlipoidemia model; assay type: in vivo; details: for HDL-C, after administration / LDL-C, after administration / TC, after administration / TG, after administration: 40 mg/kg intragastric, 1 week, high-lipid feed continued, blood plasma, x±s, asterisks = P vs before administration; for therapeutic effect compared with fenofibrate (conclusion from table 2): fenofibrate 40 mg/kg
Text: Animals: 134 male Goldenhamsters, aged 8 weeks, body weight 80-100 g, provided by Vital River Laboratories, Beijing. […] Kits: The kits for total cholesterol (TC), triglyceride (TG), and high density lipoprotein cholesterol (HDL-C) were provided by SYSMEX, and the kits for low density lipoprotein cholesterol (LDL-C) were provided by Shanghai Kehua Bio-engineering Co., Ltd. Apparatus: SYSMEX Automatic Biochemistry Analyzer, Bechman centrifuge, Setoris balance. The animals were acclimatized and fed for 1 week, ad lib, light cycle was 10 h/14 h, and then feeds with high lipid content were fed to the animals (formulation: 0.3% cholesterol, 20% palm oil, and 79.7% basic feeds). The animals were fed for 10 days, and were fasted at 4:00 pm on the 10th day (fasted for 16 h). On the 11th day, the animals were anaesthetized with ethyl ether, weighted, and then 0.5 ml blood was collected from vena orbitalis posterior. The blood was anticoagulated with heparin, and was centrifugated at 5000 rpm for 10 min. The blood plasma was taken, and the levels of TC, TG, HDL-C, and LDL-C in blood plasma were determined using automatic biochemistry analyzer. The animals were acclimatized and fed for 1 week, ad lib, light cycle was 10 h/14 h, and then feeds with high lipid content were fed to the animals (formulation: 0.3% cholesterol, 20% palm oil, and 79.7% basic feeds). The animals were fed for 2 weeks, and were fasted at 4:00 pm on the […] (fasted for 16 h). On the 22nd day, the animals were anaesthetized with ethyl ether, weighted, and then 0.5 ml blood was collected from vena orbitalis posterior. The blood was anticoagulated with heparin, and was centrifugated at 5000 rpm for 10 min. The blood plasma was taken, and the levels of TC, TG, HDL-C, and LDL-C in blood plasma were determined using automatic biochemistry analyzer. […] During the administration, feeds with high lipid content were continuously fed to the animals. The animals were fed for 1 week, and were fasted at 4:00 pm on the 7th day. On the 8th day, the animals were anaesthetized with ethyl ether, weighted, and then 0.5 ml blood was collected from vena orbitalis posterior. The blood was anticoagulated with heparin, and was centrifugated at 5000 rpm for 10 min. The blood plasma was taken, and the levels of TC, TG, HDL-C, and LDL-C in blood plasma were determined using automatic biochemistry analyzer. The results were represented by x±s, and t test was employed for comparing the results obtained before and after administration.

[4] = 40 mg/kg, t test after vs before administration

| SMILES | solubility in water [1] | blood lipid-regulating effects (conclusion from table 3) [2] | HDL-C, after administration [2] | LDL-C, after administration [2] | TC, after administration [2] | effect on HDL-C, in comparison with the results before administration (in words) [2] | effect on LDL-C, in comparison with the results before administration (in words) [2] | HDL-C, before administration [2] | LDL-C, before administration [2] | TC, before administration [2] | regulating effects on the levels of blood lipid (conclusion from table 2) ([3]; 40 mg/kg) | HDL-C, after administration [3] | LDL-C, after administration [3] | TC, after administration [3] | TG, after administration [3] | effect on TG, in comparison with the results before administration (in words) [3, 4] | also measured |
| --- | --- | --- | --- | --- | --- | --- | --- | --- | --- | --- | --- | --- | --- | --- | --- | --- | --- |
| Cc1ccc(C(F)(F)c2ccc(OC(C)(C)C(=O)OC(C)C)cc2)cc1 [HS003-009, Isopropyl 2-(4-((4-methylphenyl)difluoromethyl)phenoxy)-2-methylpropionate] | insoluble |  |  |  |  |  |  |  |  |  |  |  |  |  |  |  |  |
| CC(C)OC(=O)C(C)(C)Oc1ccc(C(F)(F)c2cccc(Cl)c2)cc1 [HS003-011, Isopropyl 2-(4-((3-chlorophenyl)difluoromethyl)phenoxy)-2-methylpropionate] | insoluble | excellent blood lipid-regulating effects | 1.93 ± 0.91 | 2.21 ± 0.91 | 11.94 ± 2.71 | increase | significantly decreases | 1.46 ± 0.16 | 4.02 ± 1.34 | 13.91 ± 2.34 |  |  |  |  |  |  |  |
| Cc1cccc(C(F)(F)c2ccc(OC(C)(C)C(=O)OC(C)C)cc2)c1 [HS003-012, Isopropyl 2-(4-((3-methylphenyl)difluoromethyl)phenoxy)-2-methylpropionate] | insoluble |  |  |  |  |  |  |  |  |  |  |  |  |  |  |  |  |
| CC(C)OC(=O)C(C)(C)Oc1ccc(C(F)(F)c2ccccc2Cl)cc1 [HS003-014, Isopropyl 2-(4-((2-chlorophenyl)difluoromethyl)phenoxy)-2-methylpropionate] | insoluble | excellent blood lipid-regulating effects | 1.82 ± 0.18 | 1.39 ± 0.51 | 9.51 ± 1 | increases | significantly decreases | 1.57 ± 0.16 | 3.36 ± 1.19 | 13.97 ± 2.27 | tend to the effects of significantly decreasing TG, TC, and LDL-C | 3.55 ± 0.4 | 0.75 ± 0.17 | 8.20 ± 0.91 | 0.92 ± 0.25 | significantly decreases | therapeutic effect compared with fenofibrate (conclusion from table 3) [2]: outstanding therapeutic effects, and are superior to fenofibrate; effect on TC, in comparison with the results before administration (in words) [2]: significantly decreases; therapeutic effect compared with fenofibrate (conclusion from table 2) ([3]; 40 mg/kg): outstanding therapeutical effects, and is significantly superior to fenofibrate; effect on LDL-C, in comparison with the results before administration (in words) [3, 4]: significantly decreases; effect on TC, in comparison with the results before administration (in words) [3, 4]: significantly decreases |
| Cc1ccccc1C(F)(F)c1ccc(OC(C)(C)C(=O)OC(C)C)cc1 [HS003-015, Isopropyl 2-(4-((2-methylphenyl)difluoromethyl)phenoxy)-2-methylpropionate] | insoluble |  | 1.77 ± 0.18 | 2.26 ± 1.03 | 15.3 ± 3.74 | significantly increases |  | 1.54 ± 0.07 | 3.14 ± 1.22 | 13.99 ± 2.3 |  |  |  |  |  |  |  |
| Cc1cc(OC(C)(C)C(=O)OC(C)C)ccc1C(F)(F)c1ccc(Cl)cc1 [HS003-019, Isopropyl 2-(4-((4-chlorophenyl)difluoromethyl)-3-methylphenoxy)-2-methylpropionate] | insoluble | excellent blood lipid-regulating effects | 1.84 ± 0.21 | 1.83 ± 0.56 | 10.62 ± 1.02 |  | significantly decreases | 1.67 ± 0.22 | 3.12 ± 1.47 | 13.99 ± 2.28 |  |  |  |  |  |  | therapeutic effect compared with fenofibrate (conclusion from table 3) [2]: outstanding therapeutic effects, and are superior to fenofibrate; effect on TC, in comparison with the results before administration (in words) [2]: significantly decreases |
| O=C(COc1ccc(C(F)(F)c2ccc(Cl)cc2)cc1)OCc1ccccc1 [HS003-021, Benzyl 2-(4-((4-chlorophenyl)difluoromethyl)phenoxy)-acetate] |  |  |  |  |  |  |  |  |  |  | tend to the effect of significantly decreasing TG and increasing HDL-C | 4.46 ± 0.23 | 2.08 ± 0.89 | 13.37 ± 3.3 | 1.1 ± 0.53 | significantly decreases | effect on HDL-C, in comparison with the results before administration (in words) [3, 4]: significantly increases |
| CCOC(=O)CCCOc1ccc(C(F)(F)c2ccc(Cl)cc2)cc1 [HS003-026, Ethyl 4-(4-((4-chlorophenyl)difluoromethyl)phenoxy)butyrate] |  |  |  |  |  |  |  |  |  |  | tend to the effect of significantly decreasing TG and increasing HDL-C | 4.13 ± 0.32 | 1.69 ± 0.47 | 11.18 ± 1.6 | 0.82 ± 0.24 | significantly decreases | therapeutic effect compared with fenofibrate (conclusion from table 2) ([3]; 40 mg/kg): outstanding therapeutic effects on decreasing TG, and are significantly superior to fenofibrate; effect on HDL-C, in comparison with the results before administration (in words) [3, 4]: significantly increases |
